Assay results: publication PMC7377239, “Cardiovascular Effects of Polychlorinated Biphenyls and Their Major Metabolites” (Environmental Health Perspectives, 2020)
Read-outs that look alike come from different tables or passages of the source.

Legend:
HUVECs = experiment: High-content imaging cytotoxicity in HUVECs, 24 h; assay type: cell-based, human; settings: for huvec.mito.24hr / viability at 0.01 µM / activity at 0.01 µM / activity at 0.1 µM / viability at 1 µM / activity at 1 µM / viability at 10 µM / activity at 10 µM / viability at 100 µM / activity at 100 µM / huvec.mitoint.24hr / huvec.nma.24hr: 0.00 µM = 100.00; for minimal effective concentration / viability at 0.01 µM / activity at 0.01 µM / activity at 0.1 µM / viability at 1 µM / activity at 1 µM / viability at 10 µM / activity at 10 µM / viability at 100 µM / activity at 100 µM: Homo sapiens, HUVEC, 24 h
Method in brief: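 Point-of-departure values derive from four-parameter logistic fits of vehicle-normalized imaging phenotypes (Hoechst 33342, MitoTracker Orange, calcein AM). The fits follow 24 h exposure of HUVEC monolayers at 37°C and 5% CO2, with a top tested concentration of 100μM.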

[1] = system: iCell endothelial cells (human iPSC-derived ECs); experiment: High-content imaging cytotoxicity in iCell endothelial cells, 24 h; assay type: cell-based; settings: for minimal effective concentration / viability at 0.01 µM / activity at 0.01 µM / viability at 0.1 µM / activity at 0.1 µM / viability at 1 µM / activity at 1 µM / viability at 10 µM / activity at 10 µM / viability at 100 µM / activity at 100 µM: Homo sapiens, Endothelial cell; for endo.cyto.24hr / endo.mito.24hr / endo.mitoint.24hr / endo.nma.24hr / endo.tc.24hrs: 0.00 µM = 100.00
Method in brief: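 Human iPSC-derived endothelial cells (passages 1–5) were grown to a fibronectin-coated monolayer, then exposed 24 h at 37 °C with 0.5% DMSO vehicle. Staining was Hoechst 33342, MitoTracker Orange and calcein AM, read by high-content imaging. Point of departure came from 4-parameter logistic fits, with a 1-SD vehicle cutoff and 100 µM as the top concentration.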

[2] = HUVECs, 24 hr, concentration 0.10 µM
[3] = HUVECs, 24 hr, concentration 0.01 µM
[4] = HUVECs, 24 hr, concentration 1.00 µM
[5] = HUVECs, 24 hr, concentration 10.00 µM
[6] = HUVECs, 24 hr, concentration 100.00 µM

Clc1ccc(Cl)c(-c2c(Cl)ccc(Cl)c2Cl)c1Cl [(+)-PCB 136, 2,2′,3,3′,6,6′-hexachlorobiphenyl]
huvec.mito.24hr (HUVECs; [2]): 96.64 | minimal effective concentration (HUVECs; mitoint, 24 hr, read-out: POD huvec.mitoint.24hr): 0.64 µM | minimal effective concentration (HUVECs; nma, 24 hr, read-out: POD huvec.nma.24hr): 1.82 µM | viability at 0.01 µM (HUVECs; HUVECs, 24 hr, concentration 0.01 µM, read-out: huvec.cyto.24hr): 89.2% | activity at 0.01 µM (HUVECs; HUVECs, 24 hr, concentration 0.01 µM, read-out: huvec.mito.24hr): 87.1% | activity at 0.01 µM (HUVECs; HUVECs, 24 hr, concentration 0.01 µM, read-out: huvec.mitoint.24hr): 81.7% | activity at 0.01 µM (HUVECs; HUVECs, 24 hr, concentration 0.01 µM, read-out: huvec.nma.24hr): 95.8% | activity at 0.1 µM (HUVECs; HUVECs, 24 hr, concentration 0.10 µM, read-out: huvec.mitoint.24hr): 80.9% | activity at 0.1 µM (HUVECs; HUVECs, 24 hr, concentration 0.10 µM, read-out: huvec.nma.24hr): 93.4% | viability at 1 µM (HUVECs; HUVECs, 24 hr, concentration 1.00 µM, read-out: huvec.cyto.24hr): 81.4% | activity at 1 µM (HUVECs; HUVECs, 24 hr, concentration 1.00 µM, read-out: huvec.mito.24hr): 80.3% | activity at 1 µM (HUVECs; HUVECs, 24 hr, concentration 1.00 µM, read-out: huvec.mitoint.24hr): 78.8% | activity at 1 µM (HUVECs; HUVECs, 24 hr, concentration 1.00 µM, read-out: huvec.nma.24hr): 99.5% | viability at 10 µM (HUVECs; HUVECs, 24 hr, concentration 10.00 µM, read-out: huvec.cyto.24hr): 65.2% | activity at 10 µM (HUVECs; HUVECs, 24 hr, concentration 10.00 µM, read-out: huvec.mito.24hr): 30.4% | activity at 10 µM (HUVECs; HUVECs, 24 hr, concentration 10.00 µM, read-out: huvec.mitoint.24hr): 9.57% | activity at 10 µM (HUVECs; HUVECs, 24 hr, concentration 10.00 µM, read-out: huvec.nma.24hr): 50.8% | viability at 100 µM (HUVECs; HUVECs, 24 hr, concentration 100.00 µM, read-out: huvec.cyto.24hr): 40% | activity at 100 µM (HUVECs; HUVECs, 24 hr, concentration 100.00 µM, read-out: huvec.mito.24hr): 25.7% | activity at 100 µM (HUVECs; HUVECs, 24 hr, concentration 100.00 µM, read-out: huvec.mitoint.24hr): 14.8% | activity at 100 µM (HUVECs; HUVECs, 24 hr, concentration 100.00 µM, read-out: huvec.nma.24hr): 75.7% | minimal effective concentration (HUVECs; HUVECs, 24 hr, MAX 100.00, read-out: huvec.mitoint.24hr POD): 0.64 µM | minimal effective concentration (HUVECs; HUVECs, 24 hr, MAX 100.00, read-out: huvec.nma.24hr POD): 1.82 µM | viability at 0.01 µM (HUVECs; HUVECs, 24 hrs, concentration 0.01 µM, read-out: huvec.tc.24hrs): 89.2% | viability at 1 µM (HUVECs; HUVECs, 24 hrs, concentration 1.00 µM, read-out: huvec.tc.24hrs): 81.4% | viability at 10 µM (HUVECs; HUVECs, 24 hrs, concentration 10.00 µM, read-out: huvec.tc.24hrs): 65.3% | viability at 100 µM (HUVECs; HUVECs, 24 hrs, concentration 100.00 µM, read-out: huvec.tc.24hrs): 40.2% | minimal effective concentration ([1]; endothelial cells (endo), nma, 24 hr, read-out: POD endo.nma.24hr): 100 µM | viability at 0.01 µM ([1]; iPSC-EC, 0.01 µM, 0.00 µM = 100.00, read-out: endo.cyto.24hr): 103% | activity at 0.01 µM ([1]; iPSC-EC, 0.01 µM, 0.00 µM = 100.00, read-out: endo.mito.24hr): 103% | activity at 0.01 µM ([1]; iPSC-EC, 0.01 µM, 0.00 µM = 100.00, read-out: endo.mitoint.24hr): 96.4% | activity at 0.01 µM ([1]; iPSC-EC, 0.01 µM, 0.00 µM = 100.00, read-out: endo.nma.24hr): 102% | viability at 0.01 µM ([1]; iPSC-EC, 0.01 µM, 0.00 µM = 100.00, read-out: endo.tc.24hrs): 103% | viability at 0.1 µM ([1]; iPSC-EC, 0.10 µM, 0.00 µM = 100.00, read-out: endo.cyto.24hr): 103% | activity at 0.1 µM ([1]; iPSC-EC, 0.10 µM, 0.00 µM = 100.00, read-out: endo.mito.24hr): 104% | activity at 0.1 µM ([1]; iPSC-EC, 0.10 µM, 0.00 µM = 100.00, read-out: endo.mitoint.24hr): 95.5% | activity at 0.1 µM ([1]; iPSC-EC, 0.10 µM, 0.00 µM = 100.00, read-out: endo.nma.24hr): 98.7% | viability at 0.1 µM ([1]; iPSC-EC, 0.10 µM, 0.00 µM = 100.00, read-out: endo.tc.24hrs): 103% | viability at 1 µM ([1]; iPSC-EC, 1.00 µM, 0.00 µM = 100.00, read-out: endo.cyto.24hr): 103% | activity at 1 µM ([1]; iPSC-EC, 1.00 µM, 0.00 µM = 100.00, read-out: endo.mito.24hr): 103% | activity at 1 µM ([1]; iPSC-EC, 1.00 µM, 0.00 µM = 100.00, read-out: endo.mitoint.24hr): 92.5% | activity at 1 µM ([1]; iPSC-EC, 1.00 µM, 0.00 µM = 100.00, read-out: endo.nma.24hr): 98.5% | viability at 1 µM ([1]; iPSC-EC, 1.00 µM, 0.00 µM = 100.00, read-out: endo.tc.24hrs): 103% | viability at 10 µM ([1]; iPSC-EC, 10.00 µM, 0.00 µM = 100.00, read-out: endo.cyto.24hr): 101% | activity at 10 µM ([1]; iPSC-EC, 10.00 µM, 0.00 µM = 100.00, read-out: endo.mito.24hr): 102% | activity at 10 µM ([1]; iPSC-EC, 10.00 µM, 0.00 µM = 100.00, read-out: endo.mitoint.24hr): 92.2% | activity at 10 µM ([1]; iPSC-EC, 10.00 µM, 0.00 µM = 100.00, read-out: endo.nma.24hr): 99.4% | viability at 10 µM ([1]; iPSC-EC, 10.00 µM, 0.00 µM = 100.00, read-out: endo.tc.24hrs): 101% | viability at 100 µM ([1]; iPSC-EC, 100.00 µM, 0.00 µM = 100.00, read-out: endo.cyto.24hr): 46.7% | activity at 100 µM ([1]; iPSC-EC, 100.00 µM, 0.00 µM = 100.00, read-out: endo.mito.24hr): 41.6% | activity at 100 µM ([1]; iPSC-EC, 100.00 µM, 0.00 µM = 100.00, read-out: endo.mitoint.24hr): 51.5% | activity at 100 µM ([1]; iPSC-EC, 100.00 µM, 0.00 µM = 100.00, read-out: endo.nma.24hr): 104% | viability at 100 µM ([1]; iPSC-EC, 100.00 µM, 0.00 µM = 100.00, read-out: endo.tc.24hrs): 50.8% | minimal effective concentration ([1]; iPSC-EC, 100.00 = highest concentration tested, read-out: endo.nma.24hr POD): 100 µM

Clc1ccc(Cl)c(-c2c(Cl)ccc(Cl)c2Cl)c1Cl [(-)-PCB 136, 2,2′,3,3′,6,6′-hexachlorobiphenyl]
huvec.mito.24hr (HUVECs; [3]): 77.23 | huvec.mitoint.24hr (HUVECs; [3]): 84.43 | huvec.nma.24hr (HUVECs; [3]): 98.77 | huvec.mito.24hr (HUVECs; [2]): 130.40 | huvec.mitoint.24hr (HUVECs; [2]): 73.90 | huvec.nma.24hr (HUVECs; [2]): 86.45 | huvec.mito.24hr (HUVECs; [4]): 92.50 | huvec.mitoint.24hr (HUVECs; [4]): 88.05 | huvec.nma.24hr (HUVECs; [4]): 99.68 | huvec.mito.24hr (HUVECs; [5]): 30.92 | huvec.mitoint.24hr (HUVECs; [5]): 10.83 | huvec.nma.24hr (HUVECs; [5]): 50.44 | huvec.mito.24hr (HUVECs; [6]): 29.50 | huvec.mitoint.24hr (HUVECs; [6]): 15.66 | huvec.nma.24hr (HUVECs; [6]): 72.40 | endo.cyto.24hr ([1]; iPSC-EC, 0.01 µM): 97.58 | endo.mito.24hr ([1]; iPSC-EC, 0.01 µM): 98.40 | endo.mitoint.24hr ([1]; iPSC-EC, 0.01 µM): 92.73 | endo.nma.24hr ([1]; iPSC-EC, 0.01 µM): 101.21 | endo.tc.24hrs ([1]; iPSC-EC, 0.01 µM): 97.58 | endo.cyto.24hr ([1]; iPSC-EC, 0.10 µM): 98.68 | endo.mito.24hr ([1]; iPSC-EC, 0.10 µM): 99.17 | endo.mitoint.24hr ([1]; iPSC-EC, 0.10 µM): 90.73 | endo.nma.24hr ([1]; iPSC-EC, 0.10 µM): 99.07 | endo.tc.24hrs ([1]; iPSC-EC, 0.10 µM): 98.68 | endo.cyto.24hr ([1]; iPSC-EC, 1.00 µM): 92.98 | endo.mito.24hr ([1]; iPSC-EC, 1.00 µM): 93.57 | endo.mitoint.24hr ([1]; iPSC-EC, 1.00 µM): 89.65 | endo.nma.24hr ([1]; iPSC-EC, 1.00 µM): 102.49 | endo.tc.24hrs ([1]; iPSC-EC, 1.00 µM): 92.98 | endo.cyto.24hr ([1]; iPSC-EC, 10.00 µM): 96.25 | endo.mito.24hr ([1]; iPSC-EC, 10.00 µM): 96.58 | endo.mitoint.24hr ([1]; iPSC-EC, 10.00 µM): 86.88 | endo.nma.24hr ([1]; iPSC-EC, 10.00 µM): 101.21 | endo.tc.24hrs ([1]; iPSC-EC, 10.00 µM): 96.25 | endo.cyto.24hr ([1]; iPSC-EC, 100.00 µM): 49.24 | endo.mito.24hr ([1]; iPSC-EC, 100.00 µM): 43.24 | endo.mitoint.24hr ([1]; iPSC-EC, 100.00 µM): 53.93 | endo.nma.24hr ([1]; iPSC-EC, 100.00 µM): 111.21 | endo.tc.24hrs ([1]; iPSC-EC, 100.00 µM): 54.61
